# In ChEMBL document CHEMBL4028891, “X-ray Characterization and Structure-Based Optimization of Striatal-Enriched Protein Tyrosine Phosphatase Inhibitors” (J Med Chem, 2017):
# Target: T1, Tyrosine-protein phosphatase non-receptor type 5 (Homo sapiens, UniProt P54829)
# T1 sequence (P54829 whole entry): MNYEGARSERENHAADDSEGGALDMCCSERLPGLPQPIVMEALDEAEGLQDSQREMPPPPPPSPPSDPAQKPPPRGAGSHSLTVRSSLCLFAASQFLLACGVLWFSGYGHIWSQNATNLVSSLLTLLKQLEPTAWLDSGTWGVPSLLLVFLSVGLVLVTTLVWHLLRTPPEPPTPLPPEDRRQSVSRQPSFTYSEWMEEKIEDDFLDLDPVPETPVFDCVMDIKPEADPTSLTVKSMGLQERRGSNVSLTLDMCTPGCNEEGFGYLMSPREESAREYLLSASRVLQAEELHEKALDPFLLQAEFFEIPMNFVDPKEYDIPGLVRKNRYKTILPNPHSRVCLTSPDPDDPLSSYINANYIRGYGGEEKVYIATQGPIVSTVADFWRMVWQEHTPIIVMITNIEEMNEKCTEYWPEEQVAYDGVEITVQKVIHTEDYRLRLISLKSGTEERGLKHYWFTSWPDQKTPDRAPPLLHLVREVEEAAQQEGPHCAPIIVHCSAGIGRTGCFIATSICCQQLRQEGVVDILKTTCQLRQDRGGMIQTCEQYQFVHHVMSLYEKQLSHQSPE
# Assay: Binding affinity to 6His-tagged STEP phosphatase domain (258 to 539 residues) (unknown origin) expressed in Escherichia coli BL21 Gold (DE3) after 90 secs at 30 degC by isothermal titration calorimetry assay
row,Compound,Kd [µM]
1,O=P(O)(O)[C@H](O)c1ccc(-c2cccc([C@@H](O)c3ccc(Cl)c(Cl)c3)c2)cc1,27.2
2,O=P(O)(O)C(F)(F)c1cccc(-c2cccc(C3CCCCC3)c2O)c1,70.4
3,O=P(O)(O)[C@H](O)c1ccc(-c2cccc([C@H](O)c3ccc(Cl)c(Cl)c3)c2)cc1,31.4
